Source: PubChem BioAssay AID1963867 (Molecular Pharmacology Branch, DTP, NCI, 2024)

Tested on: KRAS-mutant PDC tumor spheroid with HUVEC/MSC, viability
Assay: Anticancer human tumor 327498-153-R-J2-PDC patient-derived uterine carcinosarcoma cell line growth inhibition [KRAS2]
Settings: for IC50: curve of first compound; for viability, T/C: stronger effect = lower value; active means viability on the fitted dose curve at most 10% of control; inactive means the rest
Excerpt: Multicellular complex tumor spheroid response to RAS pathway inhibitors in combination with a targeted agents in patient-derived cell lines with oncogenic KRAS variants from multiple cancer types
A high-throughput screen of multi-cell type tumor spheroids was designed to identify active combinations of targeted small molecules and KRAS pathway inhibitors. Complex spheroids include a stromal component modeled by human endothelial cells (HUVEC) and fibroblasts modeled by human mesenchymal stem cells (MSCs). The concentration ranges selected for each drug and investigational agent were based upon clinically achievable concentrations if the clinical Cmax of the agent was known.
Compounds. The drugs and investigational agents: BI-3406 (NSC825286), BAY-293 (NSC824723), batoprotafib (TNO155; NSC825523), sotorasib (AMG 510; NSC818433), MRTX1257 (NSC819558), elimusertib (BAY 1895344; NSC800525), molibresib (GSK525762; NSC774829), temuterkib (LY3214996; NSC803410), venetoclax (NSC766270), alisertib (NSC759677), olaparib (NSC753686), talazoparib (NSC767125), erdafitinib (NSC781556), ipatasertib (NSC767898), cabozantinib (NSC761068), nintedanib (NSC756659), abemaciclib (NSC768073), docetaxel (NSC628503), trametinib (NSC758246), and sapanisertib (NSC764658) were obtained from the National Cancer Institute (NCI) Developmental Therapeutics Program Chemical Repository. The FDA-approved anticancer drug set is available from the Developmental Therapeutics Program. […] The stock solutions were prepared in dimethyl sulfoxide (DMSO, Sigma-Aldrich, St. Louis, MO, cat. D2650) at 800-fold the tested concentration and stored at -70 degrees C prior to their use. All drugs and investigational agents were tested over a range starting from a high concentration at or near the clinical Cmax and decreasing in half-log increments. If the clinical Cmax for an agent had not been determined, the highest concentration tested was 10 microM.
Cell Culture. All cells were maintained in an incubator at 37 degrees C and 5% CO2 with 95% humidity. The PDC lines were cultured according to standard operating procedures established by the NCI PDMR (https://pdmr.cancer.gov/sops/default.htm). Briefly, all PDCs were thawed and cultured in Matrigel-coated flasks prepared with a working solution of 1X Ham's F-12 nutrient mix, without supplementation (Invitrogen, Waltham, MA, cat. 11765054), 100 U/mL penicillin-streptomycin (Invitrogen, cat. 15140122), and 2.5% Matrigel (Corning Inc., Corning, NY, cat. 354248) for the first three passages. All PDCs were cultured in complete DMEM/F-12 media containing advanced DMEM/F-12 (Invitrogen, cat. 12634028), 4.9% defined fetal bovine serum, heat inactivated (HyClone Laboratories Inc., Logan, UT, cat. SH30070.03HI), 389 ng/mL hydrocortisone (Sigma-Aldrich, cat. H4001), 9.7 ng/mL human EGF recombinant protein (Invitrogen, cat. PHG0313), 23.4 microg/mL adenine (Sigma-Aldrich, cat. A2786), 97.3 U/mL penicillin-streptomycin (Invitrogen, cat. 15140122), 1.9 mM L-glutamine (Invitrogen, cat. 25030081), and 9.7 microM Y-27632 dihydrochloride (Tocris Bioscience, Bristol, United Kingdom, cat. 1254). The PDCs were cultured in complete DMEM/F12 media without 9.7 microM Y-27632 dihydrochloride for at least two passages prior to the screen. The established cell line HOP-62 was cultured in RPMI 1640 medium, HEPES (Invitrogen, cat. 22400105) with 10% defined fetal bovine serum (HyClone Laboratories Inc., cat. SH30070.03) and 2 mM L-glutamine (Invitrogen, cat. 25030081). The pooled donor HUVEC were cultured in endothelial cell growth medium 2 (PromoCell, Heidelberg, Germany, cat. C-22011) and the hMSC were cultured in mesenchymal stem cell growth medium 2 (PromoCell, cat. C-28009). For all experiments, HUVEC and hMSC were used at passages </=5, while the malignant cell lines were used at passages </=15. […]
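Further: spheroids exposed to agents for seven days before reading.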
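Wherever viability, T/C is given: 100% = DMSO vehicle wells so lower means fewer viable cells.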

CC1OCC2(CCN(c3cnc(Sc4ccnc(N)c4Cl)c(N)n3)CC2)C1N (stereo not given) + C=CC(=O)N1CCN(c2nc(=O)n(-c3c(C)ccnc3C(C)C)c3nc(-c4c(O)cccc4F)c(F)cc23)C(C)C1
inactive: viability, T/C (second compound 0.1 µM, first compound 0.0316 µM) 44.1% | viability, T/C (second compound 0.1 µM, first compound 0.1 µM) 34.8% | viability, T/C (second compound 0.1 µM, first compound 0.316 µM) 25.5% | viability, T/C (second compound 0.1 µM, first compound 1 µM) 25.2% | viability, T/C (second compound 0.1 µM, first compound 3.16 µM) 21% | viability, T/C (second compound 0.1 µM, first compound 10 µM) 16.3% | viability, T/C (second compound 0.316 µM, first compound 0.0316 µM) 41.1% | viability, T/C (second compound 0.316 µM, first compound 0.1 µM) 33.4% | viability, T/C (second compound 0.316 µM, first compound 0.316 µM) 26.4% | viability, T/C (second compound 0.316 µM, first compound 1 µM) 23.3% | viability, T/C (second compound 0.316 µM, first compound 3.16 µM) 19.1% | viability, T/C (second compound 0.316 µM, first compound 10 µM) 15.9% | viability, T/C (second compound 1 µM, first compound 0.0316 µM) 40.6% | viability, T/C (second compound 1 µM, first compound 0.1 µM) 31.6% | viability, T/C (second compound 1 µM, first compound 0.316 µM) 31.7% | viability, T/C (second compound 1 µM, first compound 1 µM) 22.9% | viability, T/C (second compound 1 µM, first compound 3.16 µM) 17.8% | viability, T/C (second compound 1 µM, first compound 10 µM) 16.9% | viability, T/C (second compound 3.16 µM, first compound 0.0316 µM) 41.8% | viability, T/C (second compound 3.16 µM, first compound 0.1 µM) 37.4% | viability, T/C (second compound 3.16 µM, first compound 0.316 µM) 28.7% | viability, T/C (second compound 3.16 µM, first compound 1 µM) 23.2% | viability, T/C (second compound 3.16 µM, first compound 3.16 µM) 22.8% | viability, T/C (second compound 3.16 µM, first compound 10 µM) 19.4% | viability, T/C (second compound 10 µM, first compound 0.0316 µM) 33.3% | viability, T/C (second compound 10 µM, first compound 0.1 µM) 28% | viability, T/C (second compound 10 µM, first compound 0.316 µM) 23.1% | viability, T/C (second compound 10 µM, first compound 1 µM) 21.1% | viability, T/C (second compound 10 µM, first compound 3.16 µM) 16.1% | viability, T/C (second compound 10 µM, first compound 10 µM) 16.9%
< 31.6 nM: IC50 (second compound 0.1 µM) | IC50 (second compound 0.316 µM) | IC50 (second compound 1 µM) | IC50 (second compound 3.16 µM) | IC50 (second compound 10 µM)
